How the values were obtained:
[1] = molecular target: T1, His93Gly sperm whale myoglobin (H93G Mb) (Physeter macrocephalus, UniProt P02185, H94G); experiment: electronic absorption and MCD spectroscopy, titration; type: binding
[2] = molecular target: T1, His93Gly sperm whale myoglobin (H93G Mb); experiment: electronic absorption and MCD spectroscopy of mixed CHA/Im adduct; type: binding

T1 sequence (P02185 2-154 H94G): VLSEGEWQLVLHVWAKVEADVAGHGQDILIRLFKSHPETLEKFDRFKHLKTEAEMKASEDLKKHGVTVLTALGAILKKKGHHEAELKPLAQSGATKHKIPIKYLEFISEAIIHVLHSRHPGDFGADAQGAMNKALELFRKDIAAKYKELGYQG

Compound	electronic absorption and MCD spectroscopy, titration [1]	electronic absorption and MCD spectroscopy of mixed CHA/Im adduct [2]
NC1CCCCC1 [CHA, cyclohexylamine]	ferric CHA-ligated H93G Mb is a six-coordinate high-spin H93G Mb derivative with the CHA amine group as the proximal donor	
c1c[nH]cn1 [Im, imidazole]		the final spectrum is that of a nearly homogeneous Im/CHA mixed-ligand adduct

— paper PMC3047591 (Inorganic chemistry, 2011)
